# Assays:
# [1] = molecular target: T1, DUX4 dbd (Homo sapiens, UniProt Q9UBX2); experiment: His pull-down assay; type: binding; settings: purified His-DUX4 dbd immobilized, biotinylated MATR3 peptides
# T1 construct: employing pETGB1-6xHis-DUX4 dbd (residues 1-159) vector as template; GB1; made in house; host or cells: E. coli Rosetta2(DE3) pLys
# Procedure: To test the interaction between 6xHis-DUX4 dbd and MATR3 synthetic peptides (prepared by CASLO; Lot No.: P230321-01-01, P230321-01-02, Lot No.: P230321-01-03), 40 pmol of 6xHis-DUX4 dbd were immobilized on His-Select Nickel Affinity gel beads (Sigma) incubating 1 hour on rotation at 4°C in IPP100 buffer (10 mM Tris-HCl pH 8.00, 100 mM NaCl, 0.1% NP-40) supplemented with 0,1 mM PMSF. Next, 4 pmol of MATR3 synthetic peptides were added incubating on rotation for 2 hours at 4°C. MATR3 peptides were incubated with the beads as negative control. Beads were washed 4 times with IPP100 buffer, boiled in 50 µl of Laemmli Sample Buffer (Bio-Rad), centrifuged and the eluted proteins were collected. Samples were stored at -20°C. Pull-down samples were boiled at 95°C for 5 minutes and bounded fractions (10%) were loaded on 15% SDS-Page acrylamide gel. The immunoblotting was performed following the procedure reported above but the wet transfer was performed at 200mA for 1.5 hours (instead of 2 hours) at 4°C. To test the interaction between DUX4 dbd and 6xHis-SUM03-MATR3(210-255), 40 pmol of 6xHis-SUMO3-MATR3(210-255) were immobilized on His-Select Nickel Affinity gel beads (Sigma) incubating 1 hour on rotation at 4°C in IPP100 buffer (10 mM Tris-HCl pH 8.00, 100 mM NaCl, 0.1% NP-40) supplemented with 0,1 mM PMSF. Next, 40 pmol of DUX4(15-155) without tag were added incubating on rotation for 2 hours at 4°C. DUX4(15-155) alone was incubated with the beads as negative control. Beads were washed 4 times with IPP100 buffer, boiled in 50 µl of Laemmli Sample Buffer (Bio-Rad), centrifuged and the eluted proteins were collected. Samples were stored at -20°C. Pull-down samples were boiled at 95°C for 5 minutes and bounded fractions (10%) were loaded on two identical 15% SDS-Page acrylamide gel. The immunoblotting was performed following the procedure reported below.
# [2] = molecular target: T2, 6xHis-DUX4 dbd (UniProt Q9UBX2 1-159); experiment: GST pull-down with purified recombinant proteins
# T2 construct: range 1-159; Expressed in E. coli from pET-GB1 and purified on nickel beads; The limits 1-159 come from the phrase pETGB1-6xHis-DUX4 dbd (residues 1-159); also called DUX4 dbd (HD1+HD2); not shown: 6xHis tag and GB1 solubility peptide of vector pET-GB1
# T2 sequence (Q9UBX2 1-159): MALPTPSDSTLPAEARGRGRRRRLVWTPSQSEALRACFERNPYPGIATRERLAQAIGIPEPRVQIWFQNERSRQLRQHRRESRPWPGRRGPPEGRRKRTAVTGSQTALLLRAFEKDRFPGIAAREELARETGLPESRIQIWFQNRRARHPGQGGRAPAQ
# T1 sequence (Q9UBX2 1-159): as above
binding result [2],Molecule,"interaction with DUX4 dbd (pulldown, synthetic peptides) [1]","interaction with DUX4 dbd (pulldown, synthetic peptides) ([1]; listed as Pep 3)","interaction with DUX4 dbd (pulldown, synthetic peptides) ([1]; listed as Pep 2)"
,(Biotin)- ERCRDDSFFGETSHNYHKFDSEYERMGRGPG PLQERSLFEKKRGAPPSSNIEDFHGLLPK -NH2 [Peptide 3],interacted with DUX4 dbd,interact with DUX4 dbd,
,(Biotin)- SFDDRGPSLNPVLDYDHGSRSQESGYYDRMD YEDDRLRDGERCRDDSFFGETSHNYHKFDS-NH2 [Peptide 2],interacted with DUX4 dbd,,interact with DUX4 dbd
no binding (tested: 40 pmol each),"GST-MATR3(2-151) (other, not shown: GST tag and thrombin site of vector pGEX-2tk) SKSFQQSSLSRDSQGHGRDLSAAGIGLLAAATQSLSMPASLGRMNQGTARLASLMNLGMSSSLNQQGAHSALSSASTSSHNLQSIFNIGSRGPLPLSSQHRGDADQASNILASFGLSARDLDELSRYPEDKITPENLPQILLQLKRRRTE",,,
